How the values were obtained:
[1] = system: STAM mouse model for NASH; test: Plasma CK-18, STAM mouse NASH model (Example 1); assay type: in vivo
Description: (§1) The STAM™ mouse is a model for NASH created by a combination of chemical and dietary interventions in C57BL/6 mice that manifest NASH at about 8 weeks, which progresses to fibrosis at about 12 weeks and then progresses to HCC at about 16 weeks. See, Saito et al., Sci. Rep. 2015, 5:12466.
(§2) In the study, the control groups were as follows: (i) Untreated Disease Control—a group of STAM mice injected with streptozotocin (STZ, Sigma-Aldrich, USA) at 2 days old, and fed a high fat diet (HFD, 57 kcal % fat, Cat #HFD32, CLEA Japan, Japan) starting at 4 weeks old; and (ii) Positive Control—a group of STAM mice treated with telmisartan (10 mg/kg QD from 7 to 9 weeks). In addition to these control groups, test groups of STAM mice treated with a low dose of ubenimex (5 mg/kg ubenimex BID from 7 to 9 weeks) or a high dose of ubenimex (25 mg/kg BID from 7 to 9 weeks), were included in the study. The low dose is equivalent to a human dose of 30 mg BID. The high dose is equivalent to a human dose of 150 mg BID. The viability, clinical signs and behavior were monitored daily, including body weight, signs of toxicity, moribundity and mortality. The mice were maintained in a SPF facility under controlled conditions of temperature (23±2° C.), humidity (45±10%), lighting (12-hour artificial light and dark cycles; light from 8:00 to 20:00) and air exchange. A high pressure was maintained in the experimental room to prevent contamination of the facility. The mice were housed in TPX cages (CLEA Japan) with a maximum of 4 mice per case.
(§3) All groups of mice were sacrificed at 9 weeks. Once sacrificed, the body weight of each mouse was recorded. The liver of each mouse was removed and weighed. The liver-to-body weight ratio was determined for each mouse. Blood serum levels of CK-18, ALT, and liver triglycerides were determined for each mouse. The livers were then sectioned and stained with hematoxylin and eosin (“HE”) stain, as well as Sirius red staining, to determine liver steatosis (ballooning) and fibrosis, respectively.

[2] = system: STAM mouse model for NASH; test: Biochemistry: plasma ALT and liver triglyceride, STAM mouse NASH model (Example 1); assay type: in vivo; conditions: 7 to 9 weeks of age
Description: as §1, §2, §3

[3] = system: STAM model of NASH fibrosis; test: Biochemistry: plasma ALT and liver triglyceride, STAM model of NASH with fibrosis (Example 3); assay type: in vivo, mouse
Method: Ubenimex or telmisartan was administered orally in a volume at 10 mL/kg. Ubenimex was administered at a dose of 5 mg/kg once daily or twice daily. Telmisartan was administered at a dose of 5 mg/kg once daily.
For plasma biochemistry, blood was collected in polypropylene tubes with anticoagulant (Novo-Heparin, Mochida Pharmaceutical Co. Ltd., Japan) and centrifuged at 1,000×g for 15 minutes at 4° C. The supernatant was collected and stored at −80° C. until use. Plasma ALT level was measured by FUJI DRI-CHEM 7000 (Fujifilm, Japan).
Liver total lipid-extracts were obtained by Folch's method (Folch et al., J. Biol Chem, 1957, 226:497). Liver samples were homogenized in chloroform-methanol (2:1 v/v) and incubated overnight at room temperature. After washing with chloroform-methanol-water (8:4:3 v/v/v), the extracts were evaporated to dryness and dissolved in isopropanol. Liver triglyceride content was measured by Triglyceride E-test (Wako Pure Chemical Industries, Ltd., Japan).
Study groups: The following study groups were used. Group 1 (Vehicle): 8 NASH mice were orally administered vehicle (RO water) in a volume of 10 mL/kg twice daily from 6 to 11 weeks of age. Group 2 (Ubenimex QD for 5 weeks): 8 NASH mice were orally administered vehicle supplemented with ubenimex at a dose of 5 mg/kg once daily from 6 to 11 weeks of age. Group 3 (Ubenimex BID for 5 weeks): 8 NASH mice were orally administered vehicle supplemented with ubenimex at a dose of 5 mg/kg twice daily from 6 to 11 weeks of age. Group 4 (Ubenimex BID for 2 weeks): 8 NASH mice were orally administered vehicle supplemented with ubenimex at a dose of 5 mg/kg twice daily from 9 to 11 weeks of age. Group 5 (Telmisartan for 5 weeks): 8 NASH mice were orally administered pure water supplemented with telmisartan at a dose of 5 mg/kg once daily from 6 to 11 weeks of age.

[4] = system: STAM model of NASH fibrosis; test: Fibrosis area by Sirius red staining, STAM model of NASH with fibrosis (Example 3); assay type: in vivo, mouse
Method: Ubenimex or telmisartan was administered orally in a volume at 10 mL/kg. Ubenimex was administered at a dose of 5 mg/kg once daily or twice daily. Telmisartan was administered at a dose of 5 mg/kg once daily. For HE staining, sections were cut from paraffin blocks of liver tissue prefixed in Bouin's solution and stained with Lillie-Mayer's hematoxylin (Muto Pure Chemicals Co., Ltd., Japan) and eosin solution (Wako Pure Chemical Industries, Ltd., Japan). NAFLD Activity Score (NAS) was calculated according to the criteria of Kleiner (Kleiner et al., Hepatology, 2005, 41:1313). To visualize collagen deposition, Bouin's fixed liver sections were stained using picro-Sirius red solution (Waldeck, Germany). For quantitative analysis of fibrosis area, bright field images of Sirius red-staining sections were captured around the central vein using a digital camera (DFC295; Leica, Germany) at 200-fold magnification, and the positive areas in 5 fields/section were measured using ImageJ software (National Institutes of Health, USA). Study groups: The following study groups were used. Group 1 (Vehicle): 8 NASH mice were orally administered vehicle (RO water) in a volume of 10 mL/kg twice daily from 6 to 11 weeks of age. Group 2 (Ubenimex QD for 5 weeks): 8 NASH mice were orally administered vehicle supplemented with ubenimex at a dose of 5 mg/kg once daily from 6 to 11 weeks of age. Group 3 (Ubenimex BID for 5 weeks): 8 NASH mice were orally administered vehicle supplemented with ubenimex at a dose of 5 mg/kg twice daily from 6 to 11 weeks of age. Group 4 (Ubenimex BID for 2 weeks): 8 NASH mice were orally administered vehicle supplemented with ubenimex at a dose of 5 mg/kg twice daily from 9 to 11 weeks of age. Group 5 (Telmisartan for 5 weeks): 8 NASH mice were orally administered pure water supplemented with telmisartan at a dose of 5 mg/kg once daily from 6 to 11 weeks of age.

[5] = system: STAM mouse model for NASH; test: NAFLD Activity Score by HE staining, STAM mouse NASH model (Example 1); assay type: in vivo; conditions: for Steatosis score 0, number of mice: score 0 = <5%; for Steatosis score 0, number of mice / Hepatocyte ballooning score 0, number of mice / Steatosis score 1, number of mice / Lobular inflammation score 1, number of mice / Lobular inflammation score 2, number of mice / Lobular inflammation score 3, number of mice / NAS (mean ± SD) / Hepatocyte ballooning score 1, number of mice: 7 to 9 weeks of age; for Hepatocyte ballooning score 0, number of mice: score 0 = None; for Steatosis score 1, number of mice: score 1 = 5-33%; for Lobular inflammation score 1, number of mice: score 1 = <2 foci/200x; for Lobular inflammation score 2, number of mice: score 2 = 2-4 foci/200x; for Lobular inflammation score 3, number of mice: score 3 = >4 foci/200x; for Hepatocyte ballooning score 1, number of mice: score 1 = Few balloon cells
Description: as §1, §2, §3

[6] = telmisartan 5 mg/kg QD oral, 6 to 11 weeks of age
[7] = ubenimex 5 mg/kg BID oral, 6 to 11 weeks of age
[8] = ubenimex 5 mg/kg BID oral, 9 to 11 weeks of age
[9] = ubenimex 5 mg/kg QD oral, 6 to 11 weeks of age

SMILES: CCCc1nc2c(C)cc(-c3nc4ccccc4n3C)cc2n1Cc1ccc(-c2ccccc2C(=O)O)cc1 [Telmisartan, telmisartan]
- Plasma CK-18 ([1]; telmisartan group (10 mg/kg QD, 7 to 9 weeks)): 284.5±38.4 mIU/mL
- Liver triglyercide (mean ± SD) ([2]; telmisartan 10 mg/kg QD): 22.4 ± 7.5 mg/g liver
- Plasma ALT (mean ± SD) ([2]; telmisartan 10 mg/kg QD): 44 ± 13 U/L
- Liver triglyceride (mean ± SD) [3, 6]: 24.6 ± 8.4 mg/g liver
- Plasma ALT (mean ± SD) [3, 6]: 36 ± 11 U/L
- Sirius red-positive area (fibrosis area, mean ± SD) [4, 6]: 0.57 ± 0.14%
- Steatosis score 0, number of mice ([5]; telmisartan 10 mg/kg QD): 3
- Hepatocyte ballooning score 0, number of mice ([5]; telmisartan 10 mg/kg QD): 8
- Steatosis score 1, number of mice ([5]; telmisartan 10 mg/kg QD): 5
- Lobular inflammation score 1, number of mice ([5]; telmisartan 10 mg/kg QD): 2
- Lobular inflammation score 2, number of mice ([5]; telmisartan 10 mg/kg QD): 4
- Lobular inflammation score 3, number of mice ([5]; telmisartan 10 mg/kg QD): 2
- NAS (mean ± SD) ([5]; telmisartan 10 mg/kg QD): 2.6 + 0.9

SMILES: CC(C)C[C@H](NC(=O)[C@@H](O)[C@H](N)Cc1ccccc1)C(=O)O [Ubenimex, (2S)-2-[[(2S,3R)-3-amino-2-hydroxy-4-phenylbutanoyl]amino]-4-methylpentanoic acid]
- Plasma CK-18 ([1]; high dose ubenimex group (25 mg/kg BID, 7 to 9 weeks)): 230.8±28.6 mIU/mL
- Plasma CK-18 ([1]; low dose ubenimex group (5 mg/kg BID, 7 to 9 weeks)): 238.5±7.7 mIU/mL
- Liver triglyercide (mean ± SD) ([2]; ubenimex 5 mg/kg BID): 50.0 ± 22.7 mg/g liver
- Plasma ALT (mean ± SD) ([2]; ubenimex 5 mg/kg BID): 59 ± 22 U/L
- Liver triglyercide (mean ± SD) ([2]; ubenimex 25 mg/kg BID): 34.8 ± 22.2 mg/g liver
- Plasma ALT (mean ± SD) ([2]; ubenimex 25 mg/kg BID): 62 ± 11 U/L
- Liver triglyceride (mean ± SD) [3, 7]: 59.6 ± 21.4 mg/g liver
- Plasma ALT (mean ± SD) [3, 7]: 52 ± 21 U/L
- Liver triglyceride (mean ± SD) [3, 8]: 62.0 ± 33.5 mg/g liver
- Plasma ALT (mean ± SD) [3, 8]: 47 ± 24 U/L
- Liver triglyceride (mean ± SD) [3, 9]: 58.6 ± 24.4 mg/g liver
- Plasma ALT (mean ± SD) [3, 9]: 85 ± 64 U/L
- Sirius red-positive area (fibrosis area, mean ± SD) [4, 7]: 0.88 ± 0.22%
- Sirius red-positive area (fibrosis area, mean ± SD) [4, 8]: 0.87 ± 0.14%
- Sirius red-positive area (fibrosis area, mean ± SD) [4, 9]: 0.75 ± 0.16%
- Hepatocyte ballooning compared with the control group ([5]; high and low dose ubenimex groups (25 and 5 mg/kg BID, 7 to 9 weeks)): significantly decreased
- Steatosis score 0, number of mice ([5]; ubenimex 5 mg/kg BID): 1
- Hepatocyte ballooning score 0, number of mice ([5]; ubenimex 5 mg/kg BID): 4
- Hepatocyte ballooning score 0, number of mice ([5]; ubenimex 25 mg/kg BID): 5
- Steatosis score 1, number of mice ([5]; ubenimex 5 mg/kg BID): 5
- Steatosis score 1, number of mice ([5]; ubenimex 25 mg/kg BID): 7
- Lobular inflammation score 1, number of mice ([5]; ubenimex 5 mg/kg BID): 1
- Hepatocyte ballooning score 1, number of mice ([5]; ubenimex 5 mg/kg BID): 2
- Hepatocyte ballooning score 1, number of mice ([5]; ubenimex 25 mg/kg BID): 2
- Lobular inflammation score 2, number of mice ([5]; ubenimex 5 mg/kg BID): 3
- Lobular inflammation score 2, number of mice ([5]; ubenimex 25 mg/kg BID): 5
- Lobular inflammation score 3, number of mice ([5]; ubenimex 5 mg/kg BID): 2
- Lobular inflammation score 3, number of mice ([5]; ubenimex 25 mg/kg BID): 2
- NAS (mean ± SD) ([5]; ubenimex 5 mg/kg BID): 3.3 ± 0.5
- NAS (mean ± SD) ([5]; ubenimex 25 mg/kg BID): 3.6 ± 0.5
